One data set deals with human recombinant GSK-3β (Homo sapiens, UniProt P49841). The data set can be described thus: GSK-3β activity, AlphaScreen with primed glycogen synthase substrate peptide. The format is biochemical. Conditions: human recombinant GSK-3β, 10 μM ATP, 60 min at room temperature, AlphaScreen; read-out: IC50. As for the experimental part:
GSK-β activity was measured using human recombinant GSK-3β and a primed (pre-phosphorylated) substrate peptide (derived from glycogen synthase and containing the phosphorylation sites 3a, b, and c) on basis of the AlphaScreen technology in 384-well plate format (small volume plate, white, GREINER).

The test system of the next data set is Tau protein. The data set can be described thus: Tau-phosphorylation: inhibition of phosphorylation of the Tau protein in adult rat cortex sections. Conditions: inhibition of Tau phosphorylation (Ser396/404, antibody AD2), 2 h incubation at 37° C. In kind it is cell-based. The procedure: The compounds' activities were determined by measuring the inhibition of phosphorylation of the Tau protein in adult rat cortex sections. The cortex sections having a thickness of 300 μm were prepared from 8-10-week old male OFA rats (Iffa-Credo), sacrificed by decapitation. They were incubated in 5 ml of DMEM medium containing pyruvate and glucose 4.5 g/l at 37° C. for 40 min. The sections were then washed twice with the medium, distributed into microtubes (50 μl in 500 μl of medium with or without test compounds), and incubated at 37° C., with stirring. Two hours later, the experiment was stopped by centrifugation. The sections were washed, sonicated and centrifuged at 18300 g, for 15 min at 4° C. The concentration of proteins in supernatant was determined by a commercial assay (BCA Protein Assay, Pierce) based on the Lowry method. The samples, denatured beforehand for 10 min at 70° C., were separated on a 4-12% Bis-Tris vertical gel in the presence of MOPS-SDS buffer and electrotransferred onto nitrocellulose membrane. Immunolabeling was performed with their monoclonal antibody AD2 which specifically recognizes the phosphorylated epitopes Ser396/404 of the Tau protein. The immunoactive proteins were visualized by adding a second antibody directed against the mouse IgG's and coupled to peroxidase and a chemiluminescent substrate. The autoradiograms obtained were finally quantified using the ‘GeneTools’ software from Syngene (GeneGnome, Ozyme) in order to determine an IC50.

Where only a bound is given, the exact number is not on record here.

human recombinant GSK-3β, sequence (P49841 whole entry): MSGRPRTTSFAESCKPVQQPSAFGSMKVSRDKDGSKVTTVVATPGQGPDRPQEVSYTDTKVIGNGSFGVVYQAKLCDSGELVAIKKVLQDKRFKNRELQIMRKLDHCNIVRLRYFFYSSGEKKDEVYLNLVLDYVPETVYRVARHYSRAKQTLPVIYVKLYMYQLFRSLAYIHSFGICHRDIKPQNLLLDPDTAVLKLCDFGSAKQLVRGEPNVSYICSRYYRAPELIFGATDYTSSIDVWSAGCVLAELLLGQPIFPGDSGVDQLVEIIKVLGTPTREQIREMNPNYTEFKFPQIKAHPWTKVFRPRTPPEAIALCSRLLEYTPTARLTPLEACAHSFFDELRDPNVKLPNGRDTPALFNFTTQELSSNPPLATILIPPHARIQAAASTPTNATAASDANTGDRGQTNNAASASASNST

As usually defined, the IC50 is the point on the concentration scale where inhibition reaches its midpoint. Consider `O=C(NCCCc1ccccc1)c1cc(-c2ccncc2)n[nH]c1=O` [Example 66, 3-Oxo-6-pyridin-4-yl-2,3-dihydro-pyridazine-4-carboxylic acid (3-phenyl-propyl)-amide; compoundwith trifluoro-aceticacid], for which the IC50 at human recombinant GSK-3β amounted to 0.095 µM; in the data set with Tau protein, 1.1 µM.

Broadly, the melting point is the temperature of the solid-liquid transition. Compound `O=C(NCc1ccc(Cl)cc1)c1cc(-c2ccncc2)n[nH]c1=O` [Example 4, N-(4-chlorobenzyl)-3-oxo-6-pyridin-4-yl-2,3-dihydropyridazine-4-carboxamide] registered a melting point of 250 °C. The IC50 at human recombinant GSK-3β is 0.18 µM. Half-maximal inhibition in the data set with Tau protein (IC50) required 13 µM.

With `O=C(NCc1ccncc1)c1cc(-c2ccncc2)n[nH]c1=O` [Example 8, 3-oxo-6-pyridin-4-yl-N-(pyridin-4-ylmethyl)-2,3-dihydropyridazine-4-carboxamide], the melting point was determined as 254 °C. This compound also showed an IC50 in the data set on Tau protein of 9 µM.

With `O=C(NCc1ccc(Cl)cc1Cl)c1cc(-c2ccc(O)cc2)n[nH]c1=O` [Example 22, N-(2,4-Dichlorbenzyl)-3-oxo-6-[4-(hydroxy)phenyl]-2,3-dihydropyridazine-4-carboxylic acid], the 50% inhibitory concentration (IC50) with Tau protein is 22 µM.

Turning to `O=C(NCc1ccccc1)c1cc(-c2ccc(O)cc2)n[nH]c1=O` [Example 19, N-benzyl-3-oxo-6-[4-(hydroxy)phenyl]-2,3-dihydropyridazine-4-carboxamide], in the data set on Tau protein, 4.1 µM corresponded to half-maximal inhibition (IC50).

Consider `Cc1cc(-c2cc(C(=O)NCc3ccc(Cl)cc3)c(=O)[nH]n2)cc(C)c1O` [Example 52, 6-(4-Hydroxy-3,5-dimethyl-phenyl)-3-oxo-2,3-dihydro-pyridazine-4-carboxylic acid 4-chloro-benzylamide], for which the values for the IC50 at human recombinant GSK-3β and in the data set on Tau protein were > 10 µM and 19 µM, respectively.

For `CNc1nccc(-c2cc(C(=O)NCc3ccc(Cl)cc3)c(=O)[nH]n2)n1` [Example 34, 6-(2-Methylamino-pyrimidin-4-yl)-3-oxo-2,3-dihydro-pyridazine-4-carboxylic acid 4-chloro-benzylamide], it took 0.24 µM to reach half-maximal inhibition with Tau protein (IC50).

In the case of `O=C(NCc1ccc(Cl)cc1)c1cc(-c2ccc(O)cc2)n[nH]c1=O` [Example 40, 6-(4-Hydroxy-phenyl)-3-oxo-2,3-dihydro-pyridazine-4-carboxylic acid 4-chloro-benzylamide], the IC50 stood at 2.8 µM on human recombinant GSK-3β and 0.3 µM in the data set on Tau protein.

Consider `O=C(NCc1ccc(Cl)cc1)c1cc(-c2cccc(O)c2)n[nH]c1=O` [Example 53], for which the IC50 at human recombinant GSK-3β amounted to 4.4 µM; with Tau protein it was 19 µM.

Take `O=C(NCc1ccc(C(F)(F)F)cc1)c1cc(-c2ccncc2)n[nH]c1=O` [Example 10, 3-oxo-6-pyridin-4-yl-N-[4-(trifluoromethyl)benzyl]-2,3-dihydropyridazine-4-carboxamide]: the melting point came to 227 °C. Further, half-maximal inhibition in the data set with Tau protein (IC50) was put at 9.5 µM.

The compound `O=C(NCc1ccc(Cl)cc1)c1cc(Cl)n[nH]c1=O` [Example 43, 6-Chloro-3-oxo-2,3-dihydro-pyridazine-4-carboxylic acid 4-chloro-benzylamide] registered an IC50 with Tau protein of 2.2 µM.

Compound `O=C(NCc1ccc(Cl)c(Cl)c1)c1cc(-c2ccncc2)n[nH]c1=O` [Example 16, N-(3,4-dichlorobenzyl)-3-oxo-6-pyridin-4-yl-2,3-dihydropyridazine-4-carboxamide] gave a melting point of 265 °C. In addition, the IC50 in the data set on Tau protein was found to be 3.5 µM.

`O=C(NCc1ccc(Cl)cc1Cl)c1cc(-c2ccncc2)n[nH]c1=O` [Example 2, N-(2,4-dichlorobenzyl)-3-oxo-6-pyridin-4-yl-2,3-dihydropyridazine-4-carboxamide] showed a melting point of 233 °C. The IC50 on human recombinant GSK-3β came to 0.72 µM. The compound also had an IC50 in the data set on Tau protein of 22 µM.

Values taken from patent US7309701B2, “Pyridazinone derivatives as pharmaceuticals and pharmaceutical compositions containing them” (Sanofi-Aventis Deutschland GmbH, priority 2002, dated 2007).
